Reference: paper PMC8319579, “Aspergillomarasmine A inhibits metallo-β-lactamases by selectively sequestering Zn^2+” (The Journal of Biological Chemistry, 2021)

Columns and labels:
New Delhi MBL-1 (NDM-1) [1] = target: T1, New Delhi MBL-1 (NDM-1) (Klebsiella pneumoniae, UniProt C7C422); assay: steady-state hydrolysis by purified NDM-1, absorbance at […] nm; type: biochemical
T1 construct: gene blaNDM-1; His6-SUMO tag removed

New Delhi MBL-1 (NDM-1) [2] = target: T1, New Delhi MBL-1 (NDM-1); assay: time-dependent covalent fluorescent labelling by SDS-PAGE; blocked by ZnSO4; type: binding

T1 sequence (C7C422 29-270 limits assumed): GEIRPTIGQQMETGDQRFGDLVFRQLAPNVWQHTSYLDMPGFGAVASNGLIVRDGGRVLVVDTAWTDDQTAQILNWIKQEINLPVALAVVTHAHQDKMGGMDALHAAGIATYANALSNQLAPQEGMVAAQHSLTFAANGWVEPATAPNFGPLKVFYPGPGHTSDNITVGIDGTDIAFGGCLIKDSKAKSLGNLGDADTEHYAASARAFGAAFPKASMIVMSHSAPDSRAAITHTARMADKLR

| SMILES | steady-state hydrolysis by purified NDM-1, absorbance at 485 nm (New Delhi MBL-1 (NDM-1) [1]) | time-dependent covalent fluorescent labelling by SDS-PAGE; blocked by ZnSO4 (New Delhi MBL-1 (NDM-1) [2]) |
| --- | --- | --- |
| O=C(Cc1cccs1)N[C@@H]1C(=O)N2C(C(=O)O)=C(/C=C/c3ccc([N+](=O)[O-])cc3[N+](=O)[O-])CS[C@H]12 [nitrocefin] | we determined the steady-state kinetics of NDM-1–catalyzed hydrolysis of nitrocefin over fixed time intervals | – |
| CN(C)c1cccc2c(S(=O)(=O)NCCN3C(=O)C=CC3=O)cccc12 [DM, N-[2-(dansylamino)ethyl]maleimide] | – | NDM-1 showed time-dependent fluorescent labeling by DM in response to AMA (Fig. 4B). |
